Assay results from patent US7989589B2, “Compstatin analogs with improved activity” (The Trustees Of The University Of Pennsylvania, priority 2002, dated 2011).

How the values were obtained:
complement activation [1] = conditions: in vivo animal models; cited from earlier work
[2] = system: activation of the complement system by immunocomplexes (C3 fixation); test: Complement inhibition assay: inhibition of C3 fixation (C3b/iC3b deposition) to ovalbumin-anti-ovalbumin complexes in normal human plasma; assay type: biochemical; conditions: complement-inhibiting activity
Protocol: Complement activation inhibition was assessed by measuring the inhibition of C3 fixation to ovalbumin—anti-ovalbumin complexes in normal human plasma. Microtiter wells were coated with 50 μl of ovalbumin (10 mg/ml) for 2 hr at 25° C. (overnight at 4° C.). The wells were saturated with 200 μl of 10 mg/ml BSA for 1 hr at 25° C. and then a rabbit anti-ovalbumin antibody was added to form an immunocomplex by which complement can be activated. Thirty microliters of peptides at various concentrations were added directly to each well followed by 30 μl of a 1:80 dilution of human plasma. After 30 min incubation, bound C3b/iC3b was detected using a goat anti-human C3 BRP-conjugated antibody. Color was developed by adding ABTS peroxidase substrate and optical density measured at 405 nm. The concentration of the peptide causing 50% inhibition of C3b/iC3b deposition was taken as the IC50 and used to compare the activities of various peptides.

complement activation [3] = conditions: cardio-pulmonary bypass, plasmapheresis, dialysis models; cited from earlier work
[4] = system: porcine-to-human xenograft; conditions: porcine-to-human xenograft perfused with human blood; cited from earlier work
[5] = system: complement activation in human serum; conditions: cited from earlier work
[6] = system: heparin/protamine-induced complement activation; conditions: primates; cited from earlier work
[7] = system: alternative pathway-mediated erythrocyte lysis; conditions: cited from earlier work

## sCR1: recombinant form of complement receptor 1 known as soluble complement receptor 1
Complement activation [1]
  suppression of complement activation: suppress complement activation in in vivo animal models

## Ac-ICVWQDWGAHRCdT-COOH [Ac- 4W, 9A13dT —OH]
[2]
  activity compared with another peptide (in words): activity equal to that of peptide SEQ ID NO:5

## CC[C@H](C)[C@H](N)C(=O)N[C@H]1CSSC[C@@H](C(=O)N[C@H](C(N)=O)[C@@H](C)O)NC(=O)[C@H](CCCN=C(N)N)NC(=O)[C@H](Cc2cnc[nH]2)NC(=O)[C@H](Cc2cnc[nH]2)NC(=O)CNC(=O)[C@H](Cc2c[nH]c3ccccc23)NC(=O)[C@H](CC(=O)O)NC(=O)[C@H](CCC(N)=O)NC(=O)[C@H](C(C)C)NC(=O)[C@H](C(C)C)NC1=O [Compstatin]
Complement activation [3]
  inhibition of complement activation in extra-corporeal circuit models: inhibit complement activation in models of cardio-pulmonary bypass, plasmapheresis, and dialysis extra-corporeal circuits
[4]
  lifetime of xenograft: prolong the lifetime of a porcine-to-human xenograft perfused with human blood
[5]
  inhibition of complement activation in human serum: inhibit complement activation in human serum
[6]
  inhibition of heparin/protamine-induced complement activation: inhibit heparin/protamine-induced complement activation in primates without significant side effects
[7]
  IC50: 12 µM
